From patent US9676760B2, “Fused heterocyclic compounds as ion channel modulators” (Gilead Sciences, Inc., priority 2011, dated 2017)

Key:
[1] = target: T1, wild-type human cardiac sodium channel, hNav1.5 (Homo sapiens, UniProt Q14524); experiment: Late INa screening assay (QPatch whole cell patch clamp, HEK293); assay type: cell-based
How it was run: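 HEK293 stably expressing hNav1.5 without beta subunits, recorded at 23-25° C. Late current was induced by 10 μM tefluthrin. Cells were depolarized from −120 mV to −20 mV for 250 ms at 0.1 Hz. Compounds were tested at 1 μM in extracellular solution, with baseline taken in 0Na-ECF; output is percent block of late INa.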

[2] = target: T1, wild-type human cardiac sodium channel, hNav1.5; experiment: Peak INa screening assay (tonic and use-dependent block); assay type: cell-based; settings: compound at 1 μM
Method: The late sodium current (Late INa) and peak sodium current (Peak INa) assays are performed on an automated electrophysiology platform, QPatch 16× (Sophion Bioscience, Copenhagen, Denmark), which uses the whole cell patch clamp technique to measure currents through the cell membrane of up to 16 cells at a time. The assay uses an HEK293 (human embryonic kidney) cell line heterologously expressing the wild-type human cardiac sodium channel, hNav1.5, purchased from Millipore (Billerica, Mass.). No beta subunits were coexpressed with the Na channel alpha subunit. Cells are maintained with standard tissue culture procedures and stable channel expression is maintained with 400 μg/mL Geneticin in the culture medium. Cells isolated for use on QPatch are incubated for 5 minutes in Detachin 1×(Genlantis, San Diego, USA) at 37° C. to ensure that 80-90% of the cells are single and not part of a cell cluster. Experiments are carried out at 23-25° C.
For both the Late INa and Peak INa assays, series resistance compensation is set to 100% and series resistance and whole-cell compensation are performed automatically. Currents are digitized at 25 kHz and low-pass filtered at 12 kHz and 10 kHz for the late and peak INa assays, respectively. Currents through open sodium channels are automatically recorded and stored in the Sophion Bioscience Oracle database (Sophion Bioscience, Copenhagen, Denmark). Analysis is performed using QPatch Assay and database software and data are compiled in Excel.
Compound stocks are routinely made by the Gilead Sample Bank in plastic vials to 10 mM in dimethyl sulfoxide (DMSO). In some cases, when compounds are not soluble in DMSO, they are made in 100% ethanol. Stocks are sonicated as necessary. The extracellular solution for screening Late INa is composed of: 140 mM NaCl, 4 mM KCl, 1.8 mM CaCl2, 0.75 mM MgCl2 and 5 mM HEPES with pH adjusted to 7.4 using NaOH. The intracellular solution used to perfuse the inside of the cells for both the Late INa and Peak INa assays contains: 120 mM CsF, 20 mM CsCl, 5 mM EGTA, 5 mM HEPES and pH adjusted to 7.4 with CsOH. Compounds are diluted in extracellular solution to 1 μM in glass vials and then transferred to glass well plates before robotic addition to the cells. The 0 mM Na extracellular solution (0Na-ECF) used at the end of each experiment for the Late INa and Peak INa assays to measure baseline current contains: 140 mM N-methyl-D-glucamine; 4 mM KCl; 1.8 mM CaCl2; 0.75 mM MgCl2; 5 mM HEPES and pH was adjusted to 7.4 with HCl.
Compounds were also evaluated for their effect in several other assays, including their effect on Peak INa. […] Since the peak INa in the cells used herein can be very large, introducing artifacts in the recording, the concentration of Na^+ in the bath can be reduced to 20 mM and a nonpermeant cation added to compensate for the Na^+ that was removed to maintain the osmolarity and ionic strength of the solution (see solution details below).
A low stimulation frequency of 0.1 Hz was used to determine the effect of the test compound when the channel spent most of the time in the resting (closed) state and provides information about Tonic Block (TB). A higher stimulation frequency (3 Hz) was used to measure block of the channel when it spent more time in the activated and inactivated states and provided a measure of Use-Dependent Block (UDB). Use-dependent block refers to the accumulation of block with increased frequency of channel activation.

[3] = HEK293, percent block of late INa, compound at 1 μM, 10 μM Tefluthrin, read-out: Late INa 1 μM
[4] = tonic block of peak INa, 0.1 Hz, read-out: Peak TB 1 μM
[5] = use-dependent block of peak INa, 3 Hz, read-out: Peak UDB 1 μM

T1 sequence (Q14524 whole entry): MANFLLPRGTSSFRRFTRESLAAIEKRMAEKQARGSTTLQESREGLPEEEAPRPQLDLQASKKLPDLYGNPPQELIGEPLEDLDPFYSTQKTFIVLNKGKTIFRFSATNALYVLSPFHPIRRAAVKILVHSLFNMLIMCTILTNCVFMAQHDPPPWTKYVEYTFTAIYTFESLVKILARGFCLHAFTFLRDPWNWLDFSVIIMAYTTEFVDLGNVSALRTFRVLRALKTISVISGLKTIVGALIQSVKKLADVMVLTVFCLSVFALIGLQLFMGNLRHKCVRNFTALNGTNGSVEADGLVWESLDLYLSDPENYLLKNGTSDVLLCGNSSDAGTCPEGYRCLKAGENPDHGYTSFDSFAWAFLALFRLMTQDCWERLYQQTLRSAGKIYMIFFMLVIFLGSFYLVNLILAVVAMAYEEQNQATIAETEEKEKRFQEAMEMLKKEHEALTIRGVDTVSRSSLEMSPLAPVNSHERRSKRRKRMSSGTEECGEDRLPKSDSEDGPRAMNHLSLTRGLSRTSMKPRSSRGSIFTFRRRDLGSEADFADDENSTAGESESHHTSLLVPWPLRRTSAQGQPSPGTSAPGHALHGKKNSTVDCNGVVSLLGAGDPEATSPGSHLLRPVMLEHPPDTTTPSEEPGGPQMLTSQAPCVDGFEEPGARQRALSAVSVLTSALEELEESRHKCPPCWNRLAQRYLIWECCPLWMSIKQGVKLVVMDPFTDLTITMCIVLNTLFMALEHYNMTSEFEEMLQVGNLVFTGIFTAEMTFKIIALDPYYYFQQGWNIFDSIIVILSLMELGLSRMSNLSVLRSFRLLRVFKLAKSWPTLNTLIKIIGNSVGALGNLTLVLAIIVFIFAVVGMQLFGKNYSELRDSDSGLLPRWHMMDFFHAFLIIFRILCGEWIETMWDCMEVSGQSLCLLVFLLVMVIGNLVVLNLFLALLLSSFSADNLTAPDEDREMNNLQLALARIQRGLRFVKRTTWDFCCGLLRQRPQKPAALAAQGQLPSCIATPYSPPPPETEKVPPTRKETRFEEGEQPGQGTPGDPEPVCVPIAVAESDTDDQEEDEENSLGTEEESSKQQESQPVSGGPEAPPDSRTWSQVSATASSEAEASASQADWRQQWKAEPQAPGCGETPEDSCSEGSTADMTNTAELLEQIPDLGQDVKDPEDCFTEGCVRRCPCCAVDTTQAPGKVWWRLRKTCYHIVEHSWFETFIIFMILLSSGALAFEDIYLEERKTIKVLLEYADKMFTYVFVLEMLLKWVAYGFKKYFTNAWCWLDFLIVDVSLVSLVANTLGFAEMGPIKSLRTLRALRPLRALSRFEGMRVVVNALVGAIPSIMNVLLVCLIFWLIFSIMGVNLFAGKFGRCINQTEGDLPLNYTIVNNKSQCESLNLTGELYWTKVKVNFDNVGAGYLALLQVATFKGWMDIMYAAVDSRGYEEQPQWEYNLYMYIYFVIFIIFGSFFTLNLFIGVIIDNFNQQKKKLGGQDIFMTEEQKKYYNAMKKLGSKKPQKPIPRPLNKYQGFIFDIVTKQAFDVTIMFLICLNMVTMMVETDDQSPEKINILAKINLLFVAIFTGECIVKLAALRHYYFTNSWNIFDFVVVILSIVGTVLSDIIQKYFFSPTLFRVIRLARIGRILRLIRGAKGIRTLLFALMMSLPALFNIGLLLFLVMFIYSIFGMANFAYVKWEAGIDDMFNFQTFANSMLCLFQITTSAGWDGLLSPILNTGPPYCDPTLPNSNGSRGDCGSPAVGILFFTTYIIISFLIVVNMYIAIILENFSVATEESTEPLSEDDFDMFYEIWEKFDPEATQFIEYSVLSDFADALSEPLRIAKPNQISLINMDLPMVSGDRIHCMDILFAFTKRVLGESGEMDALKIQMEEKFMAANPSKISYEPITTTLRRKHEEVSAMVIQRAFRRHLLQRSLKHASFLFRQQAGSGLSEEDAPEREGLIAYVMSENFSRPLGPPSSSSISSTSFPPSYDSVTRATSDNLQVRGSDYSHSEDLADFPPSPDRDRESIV

SMILES	inhibition at 1 µM [1, 3]	inhibition at 1 µM [2, 4]	inhibition at 1 µM [2, 5]	inhibition at 1 µM ([1]; HEK293, % Inhibition at 1 uM, read-out: Late INa*)
O=C1c2cc(Nc3ccc(OC(F)(F)F)cc3)ccc2OCCN1Cc1ccccn1 [XIII-4, 4-(pyridin-2-ylmethyl)-7-(4-(trifluoromethoxy)phenylamino)-3,4-dihydrobenzo[f][1,4]oxazepin-5(2H)-one]	51%	8%	9%	
O=C(Cc1ccccn1)N1CCOc2ccc(-c3ccc(C(F)(F)F)cc3)cc2C1 [III-29, 2-(pyridin-2-yl)-1-(7-(4-(trifluoromethyl)phenyl)-2,3-dihydrobenzo[f][1,4]oxazepin-4(5H)-yl)ethanone]	48%	11%	14%	
COc1ccnc(CN2CCOc3ccc(-c4ccc(OC(F)(F)F)cc4)cc3C2=O)n1 [II-137, 4-((4-methoxypyrimidin-2-yl)methyl)-7-(4-(trifluoromethoxy)phenyl)-3,4-dihydrobenzo[f][1,4]oxazepin-5(2H)-one]	54%	28%	26%	
O=C1c2cc(-c3ccc(OC(F)(F)F)cc3)ccc2OCCN1Cn1cc(Cl)cn1 [II-156, 4-((4-chloro-1H-pyrazol-1-yl)methyl)-7-(4-(trifluoromethoxy)phenyl)-3,4-dihydrobenzo[f][1,4]oxazepin-5(2H)-one]	48%	23%	13%	48%
O=C1c2nc(-c3ccc(OC(F)(F)F)cc3)ccc2OCCN1Cc1ccccc1 [XII-2, 4-benzyl-7-(4-(trifluoromethoxy)phenyl)-3,4-dihydropyrido[2,3-f][1,4]oxazepin-5(2H)-one]	57%	45%	64%	
O=C1c2cc(-c3ccc(OC(F)(F)F)cc3)ccc2OCCN1Cc1cnccn1 [II-31, 4-(pyrazin-2-ylmethyl)-7-(4-(trifluoromethoxy)phenyl)-3,4-dihydrobenzo[f][1,4]oxazepin-5(2H)-one]	51%	9%	8%	
O=C1c2cc(-c3ccc(CC(F)(F)F)cc3)ccc2OCCN1Cc1ccccn1 [II-151, 4-(pyridin-2-ylmethyl)-7-(4-(2,2,2-trifluoroethyl)phenyl)-3,4-dihydrobenzo[f][1,4]oxazepin-5(2H)-one]	51%	13%	14%	
O=C1c2cc(-c3ccc(OC(F)(F)F)cc3)ccc2OCCN1Cc1ccccc1F [II-57, 4-(2-fluorobenzyl)-7-(4-(trifluoromethoxy)phenyl)-3,4-dihydrobenzo[f][1,4]oxazepin-5(2H)-one]	55%	50%	41%	
Cn1cc(C(=O)N2CCOc3ccc(-c4ccc(OC(F)(F)F)cc4)cc3C2)cn1 [III-12, (1-methyl-1H-pyrazol-4-yl)(7-(4-(trifluoromethoxy)phenyl)-2,3-dihydrobenzo[f][1,4]oxazepin-4(5H)-yl)methanone]	39%	10%	17%	
O=C1c2cc(-c3ccc(OC(F)(F)F)cc3)ccc2OCCN1CCn1cccn1 [II-50, 4-(2-(1H-pyrazol-1-yl)ethyl)-7-(4-(trifluoromethoxy)phenyl)-3,4-dihydrobenzo[f][1,4]oxazepin-5(2H)-one]	48%	5%	19%	
O=C1c2cc(-c3ccc(OC(F)(F)F)cc3)ccc2OCCN1Cc1ccccn1 [II-72, 4-(pyridin-2-ylmethyl)-7-(4-(trifluoromethoxy)phenyl)-3,4-dihydrobenzo[f][1,4]oxazepin-5(2H)-one]	60%	22%	34%	
O=C1c2cc(-c3ccc(C(F)(F)F)cc3)ccc2OCCN1Cc1ncccc1F [II-176, 4-((3-fluoropyridin-2-yl)methyl)-7-(4-(trifluoromethyl)phenyl)-3,4-dihydrobenzo[f][1,4]oxazepin-5(2H)-one]	68%	45%	44%	
COc1cccnc1CN1CCOc2cnc(-c3ccc(OC(F)(F)F)cc3)cc2C1=O [XII-10, 4-((3-methoxypyridin-2-yl)methyl)-7-(4-(trifluoromethoxy)phenyl)-3,4-dihydropyrido[4,3-f][1,4]oxazepin-5(2H)-one]	45%	13%	20%	
Cc1cnn(CN2CCOc3ccc(-c4ccc(OC(F)(F)F)cc4)cc3C2=O)c1 [II-155, 4-((4-methyl-1H-pyrazol-1-yl)methyl)-7-(4-(trifluoromethoxy)phenyl)-3,4-dihydrobenzo[f][1,4]oxazepin-5(2H)-one]	38%	13%	11%	
O=C1c2cc(-c3ccc(C(F)(F)F)cc3)c(F)cc2OCCN1Cc1ccccc1 [II-168, 4-benzyl-8-fluoro-7-(4-(trifluoromethyl)phenyl)-3,4-dihydrobenzo[f][1,4]oxazepin-5(2H)-one]	44%	36%	47%	
O=C1c2cc(-c3ccc(C(F)(F)F)cc3F)ccc2OCCN1Cc1ncccc1F [II-170, 7-(2-fluoro-4-(trifluoromethyl)phenyl)-4-((3-fluoropyridin-2-yl)methyl)-3,4-dihydrobenzo[f][1,4]oxazepin-5(2H)-one]	66%	36%	31%	
CN1C(=O)CN(Cc2ccccc2)C(=O)c2cc(-c3ccc(C(F)(F)F)cc3)ccc21 [Compound X-11, 4-benzyl-1-methyl-7-(4-(trifluoromethyl)phenyl)-3,4-dihydro-1H-benzo[e][1,4]diazepine-2,5-dione]	48%	17%	20%	
O=C1c2cc(Nc3ccc(C(F)(F)F)cc3)ccc2OCCN1Cc1ccccn1 [XIII-6, 4-(pyridin-2-ylmethyl)-7-(4-(trifluoromethyl)phenylamino)-3,4-dihydrobenzo[f][1,4]oxazepin-5(2H)-one]	60%	8%	8%	
O=C1c2cc(-c3ccc(C(F)(F)F)cc3)cc(F)c2OCCN1Cc1ccccc1 [II-166, 4-benzyl-9-fluoro-7-(4-(trifluoromethyl)phenyl)-3,4-dihydrobenzo[f][1,4]oxazepin-5(2H)-one]	53%	20%	34%	
O=C1c2cc(-c3ccc(OCC4CCC4)cc3)ccc2OCCN1Cc1ncccn1 [II-144, 7-(4-(cyclobutylmethoxy)phenyl)-4-(pyrimidin-2-ylmethyl)-3,4-dihydrobenzo[f][1,4]oxazepin-5(2H)-one]	68%	34%	41%	
O=C1c2cc(-c3ccc(OC(F)(F)F)cc3)ccc2OCCN1Cc1cn2ccccc2n1 [II-189, 4-(imidazo[1,2-a]pyridin-2-ylmethyl)-7-(4-(trifluoromethoxy)phenyl)-3,4-dihydrobenzo[f][1,4]oxazepin-5(2H)-one]	53%	23%	28%	
O=C1c2cc(-c3ccc(Cl)c(F)c3)ccc2OCCN1Cc1ncccc1F [II-169, 7-(4-chloro-3-fluorophenyl)-4-((3-fluoropyridin-2-yl)methyl)-3,4-dihydrobenzo[f][1,4]oxazepin-5(2H)-one]	65%	23%	23%	
